# In patent publication US7910780B2, “Method for purifying terephthalaldehyde” (LG Chem, Ltd., priority 2006, dated 2011):
# How the values were obtained:
# [1] = Solubility of terephthalaldehyde and major impurities in p-xylene and DMSO; settings: p-xylene, organic solvent or mixture
# physchem = settings: organic solvent or mixture
SMILES,"solubility ([1]; 25 °C, in p-xylene (25° C.))","solubility ([1]; 100 °C, in p-xylene (100° C.))",solubility (physchem; 25 °C),solubility (physchem; 100 °C)
"O=Cc1ccc(C(=O)O)cc1 [4-CBA, 4-carboxybenzaldehyde]",< 2000 µg/mL,< 20000 µg/mL,–,–
"O=Cc1ccc(O)cc1 [4-HBA, 4-hydroxybenzaldehyde]",–,–,< 2000 µg/mL,< 20000 µg/mL
"O=C(O)c1ccc(C(=O)O)cc1 [TPA, terephthalic acid]",–,–,–,< 20000 µg/mL
"Oc1ccc(O)cc1 [HQ, hydroquinone]",–,–,< 5000 µg/mL,< 5000 µg/mL
